According to ChEMBL document CHEMBL5649166, “RIP3 induces apoptosis independent of pronecrotic kinase activity” (Mol Cell, 2014):

What was measured:
[1] = molecular target: Calcium/calmodulin-dependent protein kinase type II subunit delta (Homo sapiens) (UniProt Q13557); assay: Inhibition of human CAMK2d using KKLNRTLSFAEPG as substrate at 1 uM in presence of 32P-ATP by Hotspot assay relative to control; values are per cent of control
[2] = molecular target: T1, Serine/threonine-protein kinase Chk1 (Homo sapiens) (UniProt O14757); assay: Inhibition of human CHK1 using KKKVSRSGLYRSPSMPENLNRPR as substrate at 1 uM in presence of 32P-ATP by Hotspot assay relative to control; values are per cent of control
T1 sequence (whole entry): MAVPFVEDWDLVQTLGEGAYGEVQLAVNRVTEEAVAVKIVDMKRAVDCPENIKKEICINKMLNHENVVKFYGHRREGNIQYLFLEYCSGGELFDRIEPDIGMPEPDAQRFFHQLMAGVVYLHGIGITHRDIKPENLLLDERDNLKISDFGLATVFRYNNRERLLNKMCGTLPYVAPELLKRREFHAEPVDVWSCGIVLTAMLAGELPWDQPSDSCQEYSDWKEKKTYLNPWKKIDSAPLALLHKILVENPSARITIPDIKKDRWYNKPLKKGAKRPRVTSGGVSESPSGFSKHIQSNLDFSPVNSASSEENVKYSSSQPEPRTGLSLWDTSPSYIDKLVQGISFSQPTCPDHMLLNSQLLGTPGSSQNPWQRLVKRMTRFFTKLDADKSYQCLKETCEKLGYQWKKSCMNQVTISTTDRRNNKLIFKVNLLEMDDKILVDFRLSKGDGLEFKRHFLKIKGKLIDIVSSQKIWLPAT

[3] = molecular target: Calcium/calmodulin-dependent protein kinase type 1D (Homo sapiens) (UniProt Q8IU85); assay: Inhibition of human CAMK1d using KKALRRQETVDAL as substrate at 1 uM in presence of 32P-ATP by Hotspot assay relative to control; values are per cent of control
[4] = molecular target: Homeodomain-interacting protein kinase 1 (Homo sapiens) (UniProt Q86Z02); assay: Inhibition of human HIPK1 using myelin basic protein as substrate at 1 uM in presence of 32P-ATP by Hotspot assay relative to control; values are per cent of control
[5] = molecular target: T2, Serine/threonine-protein kinase BRSK2 (Homo sapiens) (UniProt Q8IWQ3); assay: Inhibition of human BRSK2 using KKLNRTLSFAEPG as substrate at 1 uM in presence of 32P-ATP by Hotspot assay relative to control; values are per cent of control
T2 sequence (whole entry): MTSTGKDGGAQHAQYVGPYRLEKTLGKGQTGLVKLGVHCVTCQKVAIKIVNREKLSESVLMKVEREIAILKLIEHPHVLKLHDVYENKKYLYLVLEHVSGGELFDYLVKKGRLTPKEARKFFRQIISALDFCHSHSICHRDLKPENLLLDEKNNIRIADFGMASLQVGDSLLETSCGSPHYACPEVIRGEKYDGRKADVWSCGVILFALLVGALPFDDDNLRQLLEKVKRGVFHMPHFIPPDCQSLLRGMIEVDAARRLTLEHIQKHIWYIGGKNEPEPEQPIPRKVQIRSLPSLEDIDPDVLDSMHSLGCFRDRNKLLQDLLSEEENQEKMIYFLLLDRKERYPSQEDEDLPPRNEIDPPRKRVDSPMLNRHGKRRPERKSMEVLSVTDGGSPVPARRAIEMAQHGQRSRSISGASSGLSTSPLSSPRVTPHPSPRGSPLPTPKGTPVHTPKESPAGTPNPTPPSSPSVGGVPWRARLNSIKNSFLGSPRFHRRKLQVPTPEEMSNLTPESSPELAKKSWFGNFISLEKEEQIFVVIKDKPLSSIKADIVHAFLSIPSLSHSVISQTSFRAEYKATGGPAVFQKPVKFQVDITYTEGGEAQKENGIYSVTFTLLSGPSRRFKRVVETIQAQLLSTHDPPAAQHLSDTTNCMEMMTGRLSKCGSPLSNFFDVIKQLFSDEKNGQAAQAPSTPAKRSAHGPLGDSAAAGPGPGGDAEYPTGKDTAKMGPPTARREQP

[6] = molecular target: Calcium/calmodulin-dependent protein kinase type II subunit beta (Homo sapiens) (UniProt Q13554); assay: Residual activity of human CAMK2b using KKALRRQETVDAL as substrate at 1 uM in presence of 32P-ATP by Hotspot assay relative to control
[7] = molecular target: T3, NUAK family SNF1-like kinase 2 (Homo sapiens) (UniProt Q9H093); assay: Inhibition of human SNARK/NUAK2 using KKKVSRSGLYRSPSMPENLNRPR as substrate at 1 uM in presence of 32P-ATP by Hotspot assay relative to control; values are per cent of control
T3 sequence (whole entry): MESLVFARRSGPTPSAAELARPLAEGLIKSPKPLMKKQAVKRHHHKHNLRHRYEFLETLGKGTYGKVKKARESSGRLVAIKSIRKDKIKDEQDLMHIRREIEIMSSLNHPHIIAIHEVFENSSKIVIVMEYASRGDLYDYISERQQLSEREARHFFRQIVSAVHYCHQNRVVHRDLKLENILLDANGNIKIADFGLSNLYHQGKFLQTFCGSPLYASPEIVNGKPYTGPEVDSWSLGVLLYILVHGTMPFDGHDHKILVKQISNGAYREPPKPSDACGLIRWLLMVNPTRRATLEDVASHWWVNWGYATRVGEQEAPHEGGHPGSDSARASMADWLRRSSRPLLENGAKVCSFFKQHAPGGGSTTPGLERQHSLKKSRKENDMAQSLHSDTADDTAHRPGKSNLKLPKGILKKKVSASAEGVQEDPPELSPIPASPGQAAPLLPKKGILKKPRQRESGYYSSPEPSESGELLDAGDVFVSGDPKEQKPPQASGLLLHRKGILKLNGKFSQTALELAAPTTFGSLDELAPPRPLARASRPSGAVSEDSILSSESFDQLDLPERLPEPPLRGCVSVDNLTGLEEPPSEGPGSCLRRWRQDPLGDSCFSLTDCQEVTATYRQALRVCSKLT

Chain of Calcium/calmodulin-dependent protein kinase type II subunit beta (Homo sapiens) (Q13554 whole entry): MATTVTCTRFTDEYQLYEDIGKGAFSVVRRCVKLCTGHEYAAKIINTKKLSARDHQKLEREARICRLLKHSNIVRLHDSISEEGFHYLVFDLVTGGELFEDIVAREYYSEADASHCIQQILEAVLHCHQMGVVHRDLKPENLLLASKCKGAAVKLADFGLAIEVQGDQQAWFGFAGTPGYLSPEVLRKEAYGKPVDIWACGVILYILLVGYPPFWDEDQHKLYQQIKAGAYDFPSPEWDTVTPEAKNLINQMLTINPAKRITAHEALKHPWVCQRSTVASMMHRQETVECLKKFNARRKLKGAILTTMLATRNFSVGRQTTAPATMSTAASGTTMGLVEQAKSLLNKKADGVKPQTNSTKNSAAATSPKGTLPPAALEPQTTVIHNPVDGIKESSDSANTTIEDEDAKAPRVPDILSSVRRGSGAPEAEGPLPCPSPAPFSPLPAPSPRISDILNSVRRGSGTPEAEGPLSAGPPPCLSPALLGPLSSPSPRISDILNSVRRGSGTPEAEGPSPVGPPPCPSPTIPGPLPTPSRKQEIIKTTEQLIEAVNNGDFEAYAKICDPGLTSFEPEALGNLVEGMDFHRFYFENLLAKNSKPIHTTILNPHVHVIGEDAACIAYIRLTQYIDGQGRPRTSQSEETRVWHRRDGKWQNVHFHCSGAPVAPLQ
Chain of Homeodomain-interacting protein kinase 1 (Homo sapiens) (Q86Z02 whole entry, looked up): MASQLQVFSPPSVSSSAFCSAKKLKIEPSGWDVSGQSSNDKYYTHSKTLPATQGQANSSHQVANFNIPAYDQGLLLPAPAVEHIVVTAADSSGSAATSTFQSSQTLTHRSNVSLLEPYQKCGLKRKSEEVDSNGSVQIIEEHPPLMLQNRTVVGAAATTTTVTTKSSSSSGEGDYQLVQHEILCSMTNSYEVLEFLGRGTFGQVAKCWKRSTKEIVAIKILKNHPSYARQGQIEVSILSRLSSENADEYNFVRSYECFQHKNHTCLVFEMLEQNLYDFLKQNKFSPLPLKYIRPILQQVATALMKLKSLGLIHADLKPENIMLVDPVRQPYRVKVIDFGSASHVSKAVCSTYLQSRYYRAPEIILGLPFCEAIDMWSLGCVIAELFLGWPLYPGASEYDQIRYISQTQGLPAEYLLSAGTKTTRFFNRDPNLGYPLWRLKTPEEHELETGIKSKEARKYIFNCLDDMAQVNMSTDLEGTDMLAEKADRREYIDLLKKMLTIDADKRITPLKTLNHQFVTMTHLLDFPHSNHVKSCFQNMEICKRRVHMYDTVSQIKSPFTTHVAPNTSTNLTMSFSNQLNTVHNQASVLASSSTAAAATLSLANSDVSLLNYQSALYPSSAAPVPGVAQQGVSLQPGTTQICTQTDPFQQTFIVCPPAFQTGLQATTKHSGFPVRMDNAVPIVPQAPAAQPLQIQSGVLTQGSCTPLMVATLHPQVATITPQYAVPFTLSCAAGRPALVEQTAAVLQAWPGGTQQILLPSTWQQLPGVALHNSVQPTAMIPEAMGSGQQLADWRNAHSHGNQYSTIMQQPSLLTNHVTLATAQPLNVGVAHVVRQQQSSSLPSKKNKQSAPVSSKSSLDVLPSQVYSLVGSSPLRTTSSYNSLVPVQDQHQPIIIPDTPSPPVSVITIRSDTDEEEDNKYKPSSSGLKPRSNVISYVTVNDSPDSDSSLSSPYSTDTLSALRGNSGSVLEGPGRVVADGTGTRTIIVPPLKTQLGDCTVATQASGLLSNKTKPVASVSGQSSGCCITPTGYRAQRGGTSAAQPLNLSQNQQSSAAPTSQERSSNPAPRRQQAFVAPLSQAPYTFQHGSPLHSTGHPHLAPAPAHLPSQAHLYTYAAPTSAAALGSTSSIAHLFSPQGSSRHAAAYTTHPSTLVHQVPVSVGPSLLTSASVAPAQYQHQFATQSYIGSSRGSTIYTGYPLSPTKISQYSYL
Chain of Calcium/calmodulin-dependent protein kinase type II subunit delta (Homo sapiens) (Q13557 whole entry): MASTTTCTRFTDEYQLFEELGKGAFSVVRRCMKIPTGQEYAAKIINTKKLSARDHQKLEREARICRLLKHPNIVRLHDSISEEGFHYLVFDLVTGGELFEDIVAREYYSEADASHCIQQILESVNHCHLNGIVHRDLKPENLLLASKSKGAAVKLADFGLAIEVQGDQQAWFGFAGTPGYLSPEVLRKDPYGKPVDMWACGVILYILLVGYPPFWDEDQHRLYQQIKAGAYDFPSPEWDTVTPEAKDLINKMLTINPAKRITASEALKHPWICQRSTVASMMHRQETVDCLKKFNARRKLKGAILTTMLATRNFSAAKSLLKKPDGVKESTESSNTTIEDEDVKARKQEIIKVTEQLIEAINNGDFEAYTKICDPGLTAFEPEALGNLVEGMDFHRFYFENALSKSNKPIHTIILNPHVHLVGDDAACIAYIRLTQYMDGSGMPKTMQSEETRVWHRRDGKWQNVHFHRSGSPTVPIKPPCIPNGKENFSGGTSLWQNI
Chain of Calcium/calmodulin-dependent protein kinase type 1D (Homo sapiens) (Q8IU85 whole entry, looked up): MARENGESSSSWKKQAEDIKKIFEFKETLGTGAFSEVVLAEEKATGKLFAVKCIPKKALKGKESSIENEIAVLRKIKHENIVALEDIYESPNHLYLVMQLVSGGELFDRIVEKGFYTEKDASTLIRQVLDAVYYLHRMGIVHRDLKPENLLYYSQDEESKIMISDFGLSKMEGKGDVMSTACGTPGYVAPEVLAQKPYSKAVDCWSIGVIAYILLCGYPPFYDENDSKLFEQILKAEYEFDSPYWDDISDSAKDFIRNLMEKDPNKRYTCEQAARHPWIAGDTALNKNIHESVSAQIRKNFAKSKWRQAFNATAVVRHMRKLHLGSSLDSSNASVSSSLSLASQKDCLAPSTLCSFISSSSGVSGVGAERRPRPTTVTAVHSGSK

SMILES	residual activity [1]	residual activity [2]	residual activity [3]	residual activity [4]	residual activity [5]	residual activity [6]	residual activity [7]
CC(C)S(=O)(=O)c1ccc2nccc(Nc3ccc4scnc4c3)c2c1	98.1%	100%	99%	88.3%	99.4%	104%	108%
Cc1cc(-c2cnc(N)c3c(-c4ccc5scnc5c4)csc23)n(C)n1	104%	100%	97.8%	102%	89%	100%	95.9%
CNC(=O)c1ccc2c(c1)ncn2-c1ccc(CC(=O)OC(C)(C)C)cc1	97.3%	84.6%	99.1%	87.5%	92%	98.3%	89.7%
